# Experimental data: ChEMBL document CHEMBL5223122, “Discovery and preclinical evaluations of GST-HG131, a novel HBV antigen inhibitor for the treatment of chronic hepatitis B infection” (Bioorg Med Chem Lett, 2022)
# The source made the active and inactive calls. The rule behind the calls is not given here.
# What was measured:
# [1] = Cmax in Beagle dog at 3 mg/kg, po; type: ADME, organism-based, Canis lupus familiaris; design: dose 3 mg/kg, route po; conditions: in vivo
# Hepatitis B virus [2] = experiment: Antiviral activity against HBV infected in human HepG2.2.15 cells assessed as reduction of 3.5 Kb HBV RNA level at 500 nM incubated for 4 to 48 hrs by Northern blot anlaysis; type: functional, organism-based; conditions: time 4-48 hrs, TDE = time-dependent effect
# [3] = Volume of distribution in steady state in Sprague-Dawley rat at 1 mg/kg, iv; type: ADME, organism-based; conditions: in vivo, read-out: Vdss
# [4] = Clearance in Sprague-Dawley rat at 1 mg/kg, iv; type: ADME, organism-based; conditions: in vivo
# [5] = Oral bioavailability in Sprague-Dawley rat at 2 mg/kg; type: ADME, organism-based; conditions: in vivo
# [6] = Volume of distribution in steady state in C57BL/6 mouse at 1 mg/kg, iv; type: ADME, organism-based; conditions: in vivo, read-out: Vdss
# [7] = Microsomal stability in cynomolgus monkey liver microsomes assessed as intrinsic clearance measured per mg of protein; type: ADME, Macaca fascicularis, Microsome; conditions: read-out: CLH
# Hepatitis B virus [8] = experiment: Antiviral activity against HBV infected in human HepG2.2.15 cells assessed as maximum efficacy causing reduction of 3.5 Kb HBV RNA level incubated for 16 hrs by Northern blot anlaysis; type: functional, organism-based
# [9] = Toxicity in mouse infected with AAV encapsidated HBV assessed as change in body weight at 3 to 10 mg/kg, po QD for 4 weeks; type: organism-based; conditions: in vivo, 672 h, dose 3-10 mg/kg
# Hepatitis B virus [10] = experiment: Antiviral activity against HBV infected in human HepG2.2.15 assessed as HBV DNA reduction by qPCR method; type: functional, organism-based
# [11] = Cmax in Sprague-Dawley rat at 2 mg/kg, po; type: ADME, organism-based; design: dose 2 mg/kg, route po; conditions: in vivo
# [12] = Protein binding in human plasma assessed as unbound fraction; type: ADME, cell-free
# [13] = Microsomal stability in human liver microsomes assessed as intrinsic clearance measured per mg of protein; type: ADME, Microsome; conditions: read-out: CLH
# Hepatitis B virus [14] = experiment: In vivo antiviral activity against AAV encapsidated HBV infected in mouse assessed as reduction in HBsAg level at 3 to 10 mg/kg, po QD for 4 weeks by ELISA; type: functional, organism-based; conditions: dose 3-10 mg/kg
# Hepatitis B virus [15] = experiment: In vivo antiviral activity against AAV encapsidated HBV infected in mouse assessed as reduction in HBV DNA at 3 to 10 mg/kg, po QD for 4 weeks by qPCR method; type: functional, organism-based; conditions: dose 3-10 mg/kg
# Hepatitis B virus [16] = experiment: In vivo antiviral activity against AAV encapsidated HBV infected in mouse assessed as reduction in HBV DNA at 10 mg/kg, po QD for 4 weeks in presence of tenofovir disoproxil fumarate by qPCR method; type: functional, organism-based
# [17] = Microsomal stability in dog liver microsomes assessed as intrinsic clearance measured per mg of protein; type: ADME, Canis lupus familiaris, Microsome; conditions: read-out: CLH
# [18] = target: Voltage-gated inwardly rectifying potassium channel KCNH2 (Homo sapiens, UniProt Q12809); experiment: Inhibition of human ERG; type: toxicity
# Hepatitis B virus [19] = experiment: In vivo antiviral activity against AAV encapsidated HBV infected in mouse assessed as reduction in HBsAg level at 10 mg/kg, po QD for 4 weeks in presence of tenofovir disoproxil fumarate by ELISA; type: functional, organism-based
# Hepatitis B virus [20] = experiment: In vivo antiviral activity against AAV encapsidated HBV infected in mouse assessed as reduction in HBeAg level at 3 to 10 mg/kg, po QD for 4 weeks by ELISA; type: functional, organism-based; conditions: dose 3-10 mg/kg
# [21] = Microsomal stability in mouse liver microsomes assessed as intrinsic clearance measured per mg of protein; type: ADME, Microsome; conditions: read-out: CLH
# [22] = Oral bioavailability in C57BL/6 mouse at 2 mg/kg; type: ADME, organism-based; conditions: in vivo
# Cytochrome P450 3A4 = Cytochrome P450 3A4 (Homo sapiens, UniProt P08684); experiment: Induction of CYP3A4 (unknown origin); type: ADME
# Hepatitis B virus [23] = experiment: Antiviral activity against HBV infected in human HepG2.2.15 assessed as reduction on HBsAg level by ELISA; type: functional, organism-based
# CYP2D6 = CYP2D6 (Homo sapiens, UniProt P10635); experiment: Inhibition of CYP2D6 (unknown origin); type: ADME
# [24] = Glutathione reactivity assessed as GSH adduct formation; type: ADME
# [25] = Oral bioavailability in Beagle dog at 3 mg/kg; type: ADME, organism-based, Canis lupus familiaris; conditions: in vivo
# [26] = Apparent permeability across basolateral to apical side in human Caco-2 cells; type: ADME, cell-based
# [27] = Toxicity in rat assessed as rectal temperature at 300 to 1000 mg/kg, po measured after 1 hrs; type: organism-based; conditions: in vivo, dose 300-1000 mg/kg
# CYP3A4 = CYP3A4 (Homo sapiens, UniProt P08684); experiment: Inhibition of CYP3A4 (unknown origin); type: ADME
# [28] = Cmax in C57BL/6 mouse at 2 mg/kg, po; type: ADME, organism-based; design: dose 2 mg/kg, route po; conditions: in vivo
# [29] = Half life in Sprague-Dawley rat at 1 mg/kg, iv; type: ADME, organism-based; conditions: in vivo
# [30] = Volume of distribution in steady state in Beagle dog at 1 mg/kg, iv; type: ADME, organism-based, Canis lupus familiaris; conditions: in vivo, read-out: Vdss
# Hepatitis B virus [31] = experiment: Antiviral activity against HBV infected in human HepG2.2.15 cells assessed as reduction of 3.5 Kb HBV RNA level at 0.23 to 500 nM by Northern blot anlaysis; type: functional, organism-based; conditions: dose 0.23-500 nM
# [32] = AUC (0-last) in Beagle dog at 3 mg/kg, po; type: ADME, organism-based, Canis lupus familiaris; design: dose 3 mg/kg, route po; conditions: in vivo
# [33] = Toxicity in rat assessed as mild white myeloid lymphocytopenia of spleen at 1000 mg/kg, po QD for 14 days; type: organism-based; conditions: in vivo, 336 h, time 14 day
# [34] = Protein binding in rat plasma assessed as unbound fraction; type: ADME, cell-free
# Hepatitis B virus [35] = experiment: Antiviral activity against HBV infected in human primary hepatocytes assessed as reduction on HBeAg level by ELISA; type: functional, organism-based; conditions: Hepatocyte
# CYP2C19 = CYP2C19 (Homo sapiens, UniProt P33261); experiment: Inhibition of CYP2C19 (unknown origin); type: ADME
# [36] = Toxicity in rat assessed as organ abnormality at 100 to 300 mg/kg, po QD for 14 days; type: organism-based; conditions: in vivo, 336 h, dose 100-300 mg/kg, time 14 day
# CYP2C9 = CYP2C9 (Homo sapiens, UniProt P11712); experiment: Inhibition of CYP2C9 (unknown origin); type: ADME
# Hepatitis B virus [37] = experiment: Antiviral activity against HBV infected in human HepG2.2.15 cells assessed as reduction of 2.4/2.1 Kb HBV RNA level at 500 nM incubated for 4 to 48 hrs by Northern blot anlaysis; type: functional, organism-based; conditions: time 4-48 hrs, TDE = time-dependent effect
# [38] = Efflux ratio of apparent permeability from basolateral to apical side over apical to basolateral side in human Caco-2 cells; type: ADME, cell-based
# [39] = Half life in Beagle dog at 1 mg/kg, iv; type: ADME, organism-based, Canis lupus familiaris; conditions: in vivo
# [40] = Clearance in C57BL/6 mouse at 1 mg/kg, iv; type: ADME, organism-based; conditions: in vivo
# [41] = Clearance in Beagle dog at 1 mg/kg, iv; type: ADME, organism-based, Canis lupus familiaris; conditions: in vivo
# Hepatitis B virus [42] = experiment: Antiviral activity against HBV infected in human primary hepatocytes assessed as HBV DNA reduction at 20 uM by qPCR method; type: functional, Primary hepatocyte; design: scale not given: the % may be the effect or the level left
# Hepatitis B virus [43] = experiment: Antiviral activity against HBV infected in human HepG2.2.15 cells assessed as reduction of 2.4/2.1 Kb HBV RNA level at 0.23 to 500 nM by Northern blot anlaysis; type: functional, organism-based; conditions: dose 0.23-500 nM
# Hepatitis B virus [44] = experiment: Antiviral activity against HBV infected in human primary hepatocytes assessed as reduction on HBsAg level by ELISA; type: functional, organism-based; conditions: Hepatocyte
# Hepatitis B virus [45] = experiment: In vivo antiviral activity against AAV encapsidated HBV infected in mouse assessed as reduction in HBeAg level at 10 mg/kg, po QD for 4 weeks in presence of tenofovir disoproxil fumarate by ELISA; type: functional, organism-based
# [46] = Microsomal stability in rat liver microsomes assessed as intrinsic clearance measured per mg of protein; type: ADME, Microsome; conditions: read-out: CLH
# [47] = Apparent permeability across apical to basolateral side in human Caco-2 cells; type: ADME, cell-based
# CYP1A2 = target: T1, CYP1A2 (Homo sapiens, UniProt P05177); experiment: Inhibition of CYP1A2 (unknown origin); type: ADME
# T1 sequence (P05177 whole entry): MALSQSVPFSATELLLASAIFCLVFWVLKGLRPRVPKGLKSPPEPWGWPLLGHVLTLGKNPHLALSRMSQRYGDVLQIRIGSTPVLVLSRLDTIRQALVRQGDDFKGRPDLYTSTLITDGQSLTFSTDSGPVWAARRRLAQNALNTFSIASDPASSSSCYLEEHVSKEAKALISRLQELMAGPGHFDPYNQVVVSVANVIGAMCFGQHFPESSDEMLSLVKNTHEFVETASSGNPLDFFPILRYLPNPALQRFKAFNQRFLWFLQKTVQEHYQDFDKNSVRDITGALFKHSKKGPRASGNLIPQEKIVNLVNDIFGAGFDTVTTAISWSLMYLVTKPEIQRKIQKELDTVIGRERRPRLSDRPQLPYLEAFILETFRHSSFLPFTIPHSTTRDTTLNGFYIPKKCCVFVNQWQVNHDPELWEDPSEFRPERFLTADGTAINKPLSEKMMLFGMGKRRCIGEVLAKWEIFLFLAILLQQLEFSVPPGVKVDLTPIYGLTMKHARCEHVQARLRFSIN
# [48] = Half life in C57BL/6 mouse at 1 mg/kg, iv; type: ADME, organism-based; conditions: in vivo
# Sequence of Cytochrome P450 3A4 (P08684 whole entry): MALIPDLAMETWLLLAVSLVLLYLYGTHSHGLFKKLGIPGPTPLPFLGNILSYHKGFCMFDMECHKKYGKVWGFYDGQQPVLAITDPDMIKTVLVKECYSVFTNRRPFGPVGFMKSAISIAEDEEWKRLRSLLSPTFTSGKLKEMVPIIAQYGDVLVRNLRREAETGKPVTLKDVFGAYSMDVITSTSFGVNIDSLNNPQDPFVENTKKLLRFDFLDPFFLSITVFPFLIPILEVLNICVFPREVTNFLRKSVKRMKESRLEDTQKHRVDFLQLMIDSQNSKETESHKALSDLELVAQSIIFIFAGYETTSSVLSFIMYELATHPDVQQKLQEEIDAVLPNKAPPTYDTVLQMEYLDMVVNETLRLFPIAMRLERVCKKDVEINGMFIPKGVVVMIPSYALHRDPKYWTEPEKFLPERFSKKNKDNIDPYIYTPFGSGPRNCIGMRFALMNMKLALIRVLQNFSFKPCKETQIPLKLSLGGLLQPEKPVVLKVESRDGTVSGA
# Sequence of CYP3A4 (P08684 whole entry): as above
# Sequence of CYP2D6 (P10635 whole entry): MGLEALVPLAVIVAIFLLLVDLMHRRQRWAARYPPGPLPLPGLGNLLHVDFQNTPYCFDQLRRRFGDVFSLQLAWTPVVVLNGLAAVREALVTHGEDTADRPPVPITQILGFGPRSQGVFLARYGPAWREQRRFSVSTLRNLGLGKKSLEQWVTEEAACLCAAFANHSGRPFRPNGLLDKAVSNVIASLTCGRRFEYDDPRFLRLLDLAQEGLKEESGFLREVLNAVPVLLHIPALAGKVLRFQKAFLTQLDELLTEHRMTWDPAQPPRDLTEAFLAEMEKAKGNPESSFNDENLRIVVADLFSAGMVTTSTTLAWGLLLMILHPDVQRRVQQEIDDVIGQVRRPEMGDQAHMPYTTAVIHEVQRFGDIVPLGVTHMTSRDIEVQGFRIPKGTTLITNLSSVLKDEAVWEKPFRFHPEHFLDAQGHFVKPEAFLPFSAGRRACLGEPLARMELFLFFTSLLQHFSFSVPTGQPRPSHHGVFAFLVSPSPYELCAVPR
# Sequence of Voltage-gated inwardly rectifying potassium channel KCNH2 (Q12809 whole entry): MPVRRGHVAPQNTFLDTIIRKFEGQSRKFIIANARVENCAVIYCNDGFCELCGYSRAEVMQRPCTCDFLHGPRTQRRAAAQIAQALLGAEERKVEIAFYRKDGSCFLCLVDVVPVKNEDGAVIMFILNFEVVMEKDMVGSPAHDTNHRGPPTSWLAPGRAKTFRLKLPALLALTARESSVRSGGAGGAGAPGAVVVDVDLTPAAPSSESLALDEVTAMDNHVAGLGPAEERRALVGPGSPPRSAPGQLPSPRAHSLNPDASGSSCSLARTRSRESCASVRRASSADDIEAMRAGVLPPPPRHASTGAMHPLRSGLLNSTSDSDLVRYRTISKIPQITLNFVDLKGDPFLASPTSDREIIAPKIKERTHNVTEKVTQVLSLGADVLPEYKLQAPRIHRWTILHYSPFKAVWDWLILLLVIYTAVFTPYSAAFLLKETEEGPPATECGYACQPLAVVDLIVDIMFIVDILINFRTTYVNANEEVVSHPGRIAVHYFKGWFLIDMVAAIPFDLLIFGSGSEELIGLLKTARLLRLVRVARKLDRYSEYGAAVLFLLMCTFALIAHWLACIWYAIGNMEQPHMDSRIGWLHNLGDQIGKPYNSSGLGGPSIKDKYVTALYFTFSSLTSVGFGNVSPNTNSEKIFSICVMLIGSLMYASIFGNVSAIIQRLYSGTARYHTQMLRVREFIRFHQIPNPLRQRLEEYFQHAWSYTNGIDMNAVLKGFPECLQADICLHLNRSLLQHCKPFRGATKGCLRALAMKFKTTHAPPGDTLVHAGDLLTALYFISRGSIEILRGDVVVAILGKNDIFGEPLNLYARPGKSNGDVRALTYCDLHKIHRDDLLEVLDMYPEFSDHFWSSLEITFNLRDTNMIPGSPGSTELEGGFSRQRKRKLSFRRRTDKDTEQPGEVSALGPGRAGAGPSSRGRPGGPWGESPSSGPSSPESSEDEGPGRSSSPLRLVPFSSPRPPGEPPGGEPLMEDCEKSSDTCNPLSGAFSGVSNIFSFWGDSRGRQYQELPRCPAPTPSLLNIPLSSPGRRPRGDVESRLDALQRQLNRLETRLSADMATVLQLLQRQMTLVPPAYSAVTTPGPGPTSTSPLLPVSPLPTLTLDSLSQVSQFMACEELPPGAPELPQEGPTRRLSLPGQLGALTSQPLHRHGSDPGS
# Sequence of CYP2C9 (P11712 whole entry): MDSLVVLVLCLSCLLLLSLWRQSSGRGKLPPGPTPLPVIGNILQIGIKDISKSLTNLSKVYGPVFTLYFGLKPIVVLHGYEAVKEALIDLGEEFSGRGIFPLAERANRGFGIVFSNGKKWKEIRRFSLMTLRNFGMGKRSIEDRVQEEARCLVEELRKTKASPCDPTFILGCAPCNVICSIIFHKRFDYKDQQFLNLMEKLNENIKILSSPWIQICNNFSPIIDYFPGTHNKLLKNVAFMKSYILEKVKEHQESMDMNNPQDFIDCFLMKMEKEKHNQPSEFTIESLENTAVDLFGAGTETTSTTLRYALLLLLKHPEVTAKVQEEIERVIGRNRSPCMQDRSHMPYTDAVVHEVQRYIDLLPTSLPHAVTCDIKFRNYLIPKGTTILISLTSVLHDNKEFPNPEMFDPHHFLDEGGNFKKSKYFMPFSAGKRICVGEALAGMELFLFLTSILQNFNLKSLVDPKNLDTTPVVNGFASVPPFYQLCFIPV
# Sequence of CYP2C19 (P33261 whole entry): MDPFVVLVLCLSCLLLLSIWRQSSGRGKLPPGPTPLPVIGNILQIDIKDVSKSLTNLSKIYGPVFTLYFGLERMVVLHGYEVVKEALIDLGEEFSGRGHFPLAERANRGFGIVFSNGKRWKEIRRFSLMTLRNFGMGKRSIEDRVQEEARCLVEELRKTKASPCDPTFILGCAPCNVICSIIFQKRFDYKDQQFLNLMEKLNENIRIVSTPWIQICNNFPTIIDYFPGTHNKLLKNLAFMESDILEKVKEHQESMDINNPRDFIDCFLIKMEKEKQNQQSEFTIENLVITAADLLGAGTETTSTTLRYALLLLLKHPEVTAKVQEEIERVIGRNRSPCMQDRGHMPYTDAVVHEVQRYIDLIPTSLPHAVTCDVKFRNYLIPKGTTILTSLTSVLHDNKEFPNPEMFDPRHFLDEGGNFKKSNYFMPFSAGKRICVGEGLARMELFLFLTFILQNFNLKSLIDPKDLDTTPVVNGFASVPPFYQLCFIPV
smiles,measurement,setting,value
COCCCOc1cc2c(cc1OC)-c1cc(=O)c(C(=O)O)cn1[C@H](C(C)(C)C)CO2,Cmax,[1],4850 nM
same,Activity,Hepatitis B virus [2],Tde
same,Vd,[3],1.72 L/kg
same,clearance,[4],28 mL/min/kg
same,bioavailability,[5],71.1%
same,Vd,[6],5.8 L/kg
same,microsomal CLint,[7],< 7.5 µL/min/mg
same,Activity,Hepatitis B virus [8],Active
same,Activity,[9],Non-Toxic
same,EC50,Hepatitis B virus [10],2.6 nM
same,Cmax,[11],659 nM
same,fraction unbound,[12],0.44
same,microsomal CLint,[13],< 7.5 µL/min/mg
same,Activity,Hepatitis B virus [14],Dose-Dependent Effect
same,Activity,Hepatitis B virus [15],inactive
same,Activity,Hepatitis B virus [16],Active
same,microsomal CLint,[17],< 7.5 µL/min/mg
same,IC50,[18],> 30000 nM
same,Activity,Hepatitis B virus [19],inactive
same,Activity,Hepatitis B virus [20],Dose-Dependent Effect
same,microsomal CLint,[21],< 7.5 µL/min/mg
same,bioavailability,[22],91.6%
same,Activity,Cytochrome P450 3A4,Not Active
same,EC50,Hepatitis B virus [23],3.9 nM
same,IC50,CYP2D6,> 50000 nM
same,Activity,[24],Not Active
same,bioavailability,[25],93.2%
same,Papp B→A,[26],20.4 ×10⁻⁶ cm/s
same,Activity,[27],Non-Toxic
same,IC50,CYP3A4,> 50000 nM
same,Cmax,[28],1060 nM
same,half-life,[29],2 h
same,Vd,[30],1.08 L/kg
same,Activity,Hepatitis B virus [31],Dose-Dependent Effect
same,AUC(0-t),[32],26.5 µM·h
same,Activity,[33],Toxic
same,fraction unbound,[34],0.414
same,EC50,Hepatitis B virus [35],16 nM
same,IC50,CYP2C19,> 50000 nM
same,Activity,[36],Non-Toxic
same,IC50,CYP2C9,> 50000 nM
same,Activity,Hepatitis B virus [37],Tde
same,efflux ratio,[38],14.1
same,half-life,[39],3.39 h
same,clearance,[40],75 mL/min/kg
same,clearance,[41],4.04 mL/min/kg
same,Activity,Hepatitis B virus [42],50%
same,Activity,Hepatitis B virus [43],Dose-Dependent Effect
same,EC50,Hepatitis B virus [44],28.2 nM
same,Activity,Hepatitis B virus [45],inactive
same,microsomal CLint,[46],< 7.5 µL/min/mg
same,Papp A→B,[47],1.4 ×10⁻⁶ cm/s
same,IC50,CYP1A2,> 50000 nM
same,half-life,[48],2.5 h
